The values that follow are results of earlier work, collected in patent US20110123445A1, “TREATMENT MONITORING” (priority 2008, published 2011).

One data set deals with ERK phosphorylation. The settings on record: at the recommended phase II dose; Adjei et al 2008.
For data set [1] the following is noted: phase I trial, 57 cancer patients; Adjei et al 2008.
The test system of another data set is MEK. The following applies: Swiss 3T3 cells; Alessi et al 1995.
A further data set concerns tumour growth. The settings on record: Sebolt-Leopold et al 1999, 2004.
For the next data set, the system named is phosphorylated ERK. The following applies: phase II studies; all tumour types, including melanoma, breast, colon, and lung.

In the case of `Cn1cnc2c(F)c(Nc3ccc(Br)cc3Cl)c(C(=O)NOCCO)cc21` [AZD6244], in the data set on ERK phosphorylation, the “inhibition of ERK phosphorylation” value is listed as “demonstrable inhibition”. In data set [1], the tolerability result is “well tolerated”.

Take `COc1cccc(-c2cc(=O)c3ccccc3o2)c1N` [PD098059]: the “suppression of MEK activation by a variety of agonists” value in the data set with MEK was 80-90%.

For the compound `O=C(NOCC1CC1)c1ccc(F)c(F)c1Nc1ccc(I)cc1Cl` [PD184352], the “inhibition of tumour growth in vivo” value in the data set with tumour growth is given as “inhibit tumour growth in vivo”.

With `O=C(NOC[C@H](O)CO)c1ccc(F)c(F)c1Nc1ccc(I)cc1F` [PD0325901], the “phosphorylated ERK suppression in biopsied tumour tissue” value with phosphorylated ERK is “phosphorylated ERK suppression at all dose levels”.
